In patent publication US20240408226A1, “ANTIBODY DRUG CONJUGATE INTERMEDIATE CONTAINING SN38 AND ITS PREPARATION METHOD” (priority 2021, published 2024):

Key:
[1] = Stability in PB (0.2 M) buffer at 37° C., quantified by LC-MS; format: physicochemical; settings: for Remaining fraction T/T0: 37° C.
Description: The system was placed in a constant temperature system of 37° C. […] The system was placed in a constant temperature system of 37° C.; • 4) 40 μL of sample was respectively taken at 0 h, 2 h, 4 h, 6 h, 24 h, and 48 h, added with 120 μL of acetonitrile, and centrifuged. The supernatant was taken for quantitative determination by LC-MS. • 5) Results processing.
The concentration at T=0 h in LC-MS was used as the reference, and the data were calculated by T/T0*100%. The results are shown in Table 3 and Table 4, respectively.

small cell lung cancer = small cell lung cancer in which multiple treatments had failed; cited from earlier work
[2] = test system: triple-negative breast cancer; settings: clinical phase II; cited from earlier work
[3] = test system: non-small cell lung cancer; settings: non-small cell lung cancer after failed chemotherapy, targeting therapy and PD-1 treatment; cited from earlier work

Row | Compound | decomposed ([1]; alkaline conditions, at 24 h) | decomposed ([1]; neutral conditions, at 6 h) | decomposed ([1]; neutral conditions, at 24 h) | Remaining fraction T/T0 ([1]; pH = 6, 0 h, 60 μg/mL) | Remaining fraction T/T0 ([1]; pH = 6, 2 h, 60 μg/mL) | Remaining fraction T/T0 ([1]; pH = 6, 4 h, 60 μg/mL) | Remaining fraction T/T0 ([1]; pH = 6, 6 h, 60 μg/mL) | Remaining fraction T/T0 ([1]; pH = 6, 24 h, 60 μg/mL) | Remaining fraction T/T0 ([1]; pH = 6, 48 h, 60 μg/mL) | Remaining fraction T/T0 ([1]; pH = 7, 0 h) | Remaining fraction T/T0 ([1]; pH = 7, 2 h) | Remaining fraction T/T0 ([1]; pH = 7, 4 h) | Remaining fraction T/T0 ([1]; pH = 7, 6 h) | Remaining fraction T/T0 ([1]; pH = 7, 24 h) | Remaining fraction T/T0 ([1]; pH = 7, 48 h) | Remaining fraction T/T0 ([1]; pH = 8, 0 h) | Remaining fraction T/T0 ([1]; pH = 8, 2 h) | Remaining fraction T/T0 ([1]; pH = 8, 4 h) | Remaining fraction T/T0 ([1]; pH = 8, 6 h) | Remaining fraction T/T0 ([1]; pH = 8, 24 h) | other results
1 | CCc1c2c(nc3ccc(OC(=O)N(CCOCCOC(=O)N(C)CCN(C)C)CCN(C)C(=O)OCc4ccc(NC(=O)[C@H](CCCNC(N)=O)NC(=O)[C@@H](NC(=O)CCCCCN5C(=O)C=CC5=O)C(C)C)cc4)cc13)-c1cc3c(c(=O)n1C2)COC(=O)[C@]3(O)CC [Compound of formula (1), maleimidohexanoic acid-L-valyl-L-citrulline-p-aminobenzyl-(N-methylethyldiethoxy-N,N,N-trimethylethylenediami ne)-camptothecin] | 97% | 18% | 75% | 1 | 0.9886 | 0.9761 | 0.9208 | 0.8682 | 0.7886 | 1 | 0.8789 | 0.8018 | 0.8219 | 0.2567 | 0.1222 | 1 | 0.5641 | 0.2841 | 0.1234 | 0.009607 | Remaining fraction T/T0 ([1]; pH = 8, 48 h): 0.01256; decomposed ([1]; pH of 6, after 48 h): 21.2%; decomposed ([1]; pH of 7, after 48 h): 87.8%; decomposed ([1]; pH of 8, after 48 h): 98.7%; Stability compared with CL2A-SN38 ([1]; weak acidic conditions): more stable than CL2A-SN38; Stability compared with CL2A-SN38 ([1]; weak acidic or neutral conditions): higher stability
2 | CCc1c2c(nc3ccc(O)cc13)-c1cc3c(c(=O)n1C2)COC(=O)[C@@]3(CC)OC(=O)OCc1ccc(NC(=O)[C@@H](CCCCN)NC(=O)COCC(=O)NCCOCCOCCOCCOCCOCCOCCOCCOCCn2cc(CNC(=O)C3CCC(CN4C(=O)C=CC4=O)CC3)nn2)cc1 (stereo partly drawn) [CL2A-SN38] | 98% | 43% | 98% | 1 | 0.7479 | 0.6471 | 0.413 | 0.03593 | 0.02024 | 1 | 0.7038 | 0.5851 | 0.5715 | 0.02261 | 0.01906 | 1 | 0.6287 | 0.4347 | 0.3844 | 0.02532 | Remaining fraction T/T0 ([1]; pH = 8, 48 h): 0.01928; decomposed ([1]; pH of 6, after 48 h): 98.0%; decomposed ([1]; pH of 7, after 48 h): 98.1%; decomposed ([1]; pH of 8, after 48 h): 98.1%
3 | Sacituzumab govitecan | – | – | – | – | – | – | – | – | – | – | – | – | – | – | – | – | – | – | – | – | tumor shrinkage, share of patients (small cell lung cancer): 60%; effective rate [2]: 30%; tumor shrinkage, share of patients [2]: 69.5%; control rate [3]: up to 43%
